In patent US8148392B2, “2-indolyl imidazo [4,5-d] phenanthroline derivatives and their use in the treatment of cancer” (Lorus Therapeutics Inc., priority 2005, dated 2012):
Like-named read-outs stand apart in the source and are kept apart here.

Columns and labels:
[1] = format: in vivo; conditions: i.p. twice per day for 1 week
Protocol: To test the sub-acute toxicity of the compounds of Formula I, female mice were injected with the compounds and toxicity was evaluated based on mortality, changes in behaviour, appearance and weight. Briefly, ICR normal female mice (5-6 weeks old; n=33) weighing about 0.020 kg in body weight, were injected with various compounds at 100 mg/kg and 50 mg/kg or with the vehicle alone (Lutrol (M68, micronized)). Groups of 3 ICR female mice were injected with one intra-peritoneal (i.p.) injection of 250 μl of each compound at 4.0 mg/ml twice per day (100 mg/kg) for 1 week (Group I); or with one intra-peritoneal (i.p.) injection of 250 μl of each compound at 2.0 mg/ml twice per day (50 mg/kg) for 1 week (Group II), or with one intra-peritoneal (i.p.) injection of 250 μl of lutrol vehicle control twice per day for 1 week (Control Group).
The compounds to be tested were prepared to provide enough for one week at concentrations of 4.0 mg/ml and 2.0 mg/ml. Briefly, 50 mg of each compound was dissolved in 1.25 ml of 100% DMSO and diluted with 6.25 ml of Lutrol (30% in water) and 5 ml water, to prepare a solution of 4 mg/ml compound in 15% Lutrol in water. Next, 4 ml of each prepared solution was further diluted with 4 ml of 15% Lutrol in water to provide the 2.0 mg/ml solution of each compound. For the vehicle control solution, 8 ml of 15% Lutrol in water was prepared. Compounds at concentrations of 4.0 mg/ml and 2.0 mg/ml and the vehicle control were administered as described above.

supercoiled plasmid DNA = test: In vitro DNA cleavage assay; format: biochemical; conditions: 25 μM compound, 10 μM CuSO4, 100 μM ascorbic acid, 37° C., 30 minutes
Protocol: Compound 3 was tested for its ability to cleave plasmid DNA in vitro in the presence of copper and the reducing agent ascorbic acid. Experiments were performed in a total of 20 μl, containing 10 mM NaH2PO4/Na2HPO4 buffer (pH 6.7), 1 μg of supercoiled plasmid DNA, 100 μM ascorbic acid, 25 μM drug compound (or vehicle), and 10 μM of CuSO4.5H20. The reaction mixture was incubated at 37° C. for 30 minutes, and 1 μl of 0.1 M EDTA was added to terminate the reaction. DNA loading buffer was added, and reactions were run at 80V for 80 minutes on a 1% agarose gel containing ethidium bromide.
To determine whether ions other than copper could suffice, DNA cleavage reactions were also carried out in the presence of zinc or iron. Reactions were performed as above, in the presence of 25 μM of CuSO4.5H20, ZnCl2, or FeCl2.4H20. […] Note that copper alone in the presence of ascorbic acid can shift the ratio of supercoiled DNA to open circular DNA.
To determine the ratios of compound to copper at which compound 3 was effective, reactions were performed as in FIG. 22A. The ratios of compound 3 to copper of 3:1, 2.5:1, 2:1, 1.5:1, and 1:1, as shown in FIG. 23 were achieved by maintaining the concentration of Cu constant at 10 μM, and varying the concentration of compound 3. The ratios of compound 3 to Cu of 1:1.5, 1:2, 1:2.5, and 1:3, were achieved by maintaining the concentration of compound 3 constant at 10 μM, and varying the concentration of copper.
Other compounds of Formula I, compounds 5, 7, 9 and 13 were also tested for their ability to cleave DNA at a ratio of 2.5:1 to copper (FIG. 23). Ratios of compound 3:copper as indicated, plus concentrations of copper in the absence of compound 3 were used in the DNA cleavage assay as described above.

[2] = system: human colon carcinoma HT-29 cells; test: XTT cell proliferation assay, HT-29; format: cell-based; conditions: Homo sapiens, HT-29, XTT, read-out: IC50
Protocol: The ability of compounds of Formula I to inhibit the proliferation of human colon carcinoma HT-29 cells was tested as follows. HT-29 colon carcinoma cells used in this example and subsequent examples were maintained as a monolayer in a growth medium; McCoy's 5A modified medium (Sigma, St. Louis, Mo.), supplemented with 2 mM L-glutamine (Gibco, Grand Island, N.Y.), 10% fetal bovine serum (FBS) (Multicell, WISENT Inc. St-Bruno, QC), antibiotic-antimycotic (Multicell), at 37° C. in a 5% CO2-humidified incubator. Cells were transferred onto 150 mm tissue culture plates and grown until sub-confluency (70-80%) prior to their use. The in vitro antiproliferative activity of compounds was evaluated by incubating the cells with varying concentrations of the compounds as shown in Table 1 for 6-7 days. The efficacy of these compounds in this cell proliferation assay was measured based in the ability of live cells to reduce the tetrazolium salt XTT to orange colored compounds of formazan (XTT cell proliferation kit II, Roche Applied Science, Montreal, QC).
The ability of compounds of Formula I to inhibit the proliferation of human colon carcinoma HT-29 cells was tested as described above in Example 13.
Cell growth inhibition IC50 (μM) by compounds of Formula I was tested on various cancer cell types by XTT cell proliferation assay. The growth inhibitory effects of the compounds of Formula I as shown below for the melanoma cell line SK-MEL-2 were reproducible by Lorus Therapeutics Inc.

[3] = system: normal cell lines PrEC, HMEC, WI38 and cancer cell lines DU145, MDA-MB-435, HT-29; test: Cancer cell selectivity, IC90 in normal versus cancer cell lines (XTT); format: cell-based, human; conditions: average IC90 of all normal / average IC90 of all cancer cell lines, 6 to 7 days
From the text: An exemplary method of assessing the differential sensitivity between normal and cancer cells for a compound has been described by Vassilev et al. (Anti-Cancer Drug Design (2001) 16:7). This method involves the comparison of IC90 values, i.e. the molar concentration of a test compound required to cause 90% growth inhibition of exponentially growing cells. Thus, the IC90 values for candidate compounds can be evaluated in various cancer cell lines (such as those outlined above) and normal cells (such as HUVEC and/or WI38 cells) and compared. IC90 values can be measured using a variety of standard techniques as known in the art. Cancer cell selectivity is calculated as a ratio between the average IC90 for all normal cell lines and the average IC90 for all cancer cell lines. Compounds with an IC90 ratio (normal/cancer) of >4 are considered to be selective for cancer cells (L. T. Vassilev et al., Anti-cancer Drug Design, 2001, 16: 7-17).
The normal cells lines used were PrEC (prostate), HMEC (breast), and WI38 (lung fibroblast) cell lines and the cancer cells lines were DU145 (prostate), MDA-MB-435 (breast), HT-29 (colon). IC90 values were also determined for the controls doxorubicin and etoposide. The cells were cultured as generally described in Example 13. Various concentrations of the compounds were incubated with the cells for 6 to 7 days, and the number of proliferating cells was measured using the XTT assay. Cancer cell selectivity was calculated as a ratio between the average IC90 for all normal and the average IC90 for all cancer cell lines.

With `c1ccc(-c2[nH]c3ccccc3c2-c2nc3c4cccnc4c4ncccc4c3[nH]2)cc1` [Compound 9] the Sub-acute toxicity ([1]; 50 mg/Kg) was “−”, the Sub-acute toxicity ([1]; 100 mg/Kg) was “+” and the “cleavage of plasmid DNA” value (supercoiled plasmid DNA) was “capable of cleaving DNA”. For the same compound, the IC50 ([2]; 6-7 days, Table 3) was 0.3 µM, the IC50 ([2]; as Example 13, Table 7) was 0.3 µg/mL and the “Normal/cancer IC90 ratio” value [3] was >5.6.
